Measurements taken from US9096591B2, “Tetracyclic compounds” (Medivation Technologies, Inc., priority 2007, dated 2015).

Columns and labels:
rat brain mitochondria = assay: Mitochondrial membrane potential (safranine test); type: biochemical, Wistar rats; settings: compounds did react with safranine in buffer without mitochondria
Summary of the method: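 Rat brain mitochondria incubated as for the swelling assay, with 10 mkM safranine in the medium and succinate added before test compounds. Absorbance read at 554 and 524 nm; A554-524 reflects membrane potential, A554 reflects swelling.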

C57BL/6 mice [1] = assay: Recognition of a new location of the known object (spatial memory); type: in vivo; settings: 10 mg/kg
Text: (§1) The object recognition test is based on the fact that mice and rats spontaneously explore new object or location of a known object a lot longer than the know object or a known location of an object. This test was first used in rats (Ennaceur A., Delacour J., 1988). It was further shown by others that this type of memory testing is suitable for mice (Dodart J. et al. 1997, Messier C. 1997, Pittenger C. et al., 2002, Ryabinin A. et al., 2002, Sargolini F. et al., 2003). The method of recognition of an object is divided in two stages. The first one involves the recognition of a new location of a known object, which is used to assess spatial memory. The second one includes a test for recognition of a new in order to evaluate the non-spatial memory (Gaffan D., 1992, Kolb B. et al., 1994, Steckler T., 1998). Currently, both are widely used to determine the effectiveness of newly synthesized drugs on memory.
All experiments were carried out on 3-4 months old males (C57BL/6 line) 22-26 g weight with 10 animals in each group. All animals were kept in the animal facility (5 animals per cage) on the 12×12 hours light cycle (8 am-8 pm) with free access to food and water. […] Brown glass vials were used as test objects which are 2.7 cm in diameter (1.1 inch) and 5.5 cm high (2.2 inch). All vials were treated with 85% ethanol 2-3 minutes before each testing. Animals were placed in the center of the chamber.
(§2) Dimebon and compounds of the invention were dissolved in distilled water and administered orally at 0.05 mL per 10 g of animal mass 1 hour before the training exercise. All animals in the control group were treated with the equivalent dose of vehicle. The testing was performed 48 hours after the training exercise because animals forget the location of the object during the 48-hour resting time.
On the first day animals were brought in the testing room so that they could adapt to the testing environment for 20-30 min. Subsequently, each animal was placed in the empty testing chamber for 10 min, which was wiped with alcohol beforehand. After that animals were transferred back into the […] and returned to the animal facility.
The next day after habituation, the animals were brought back into the testing room where they were weighed and injected with the testing compound. An hour after injection, each animal was placed into the testing camber which had two identical objects that were positioned 14.5 cm (5.7 inches) from the corners on the diagonal. The training exercise lasted for 15 min for each animal. Subsequently, each animal was placed back into the cage and returned into the animal house.
The testing procedure was performed 48 hours after the training exercise. During the procedure two objects were used as in the training exercise. […] The amount of time that each animal spent on exploration each object was determined with 0.1 sec accuracy using two electronic stopwatches for total of 10 min. […] The survey of the object was counted as positive if the nose of an animal was pointed within 2 cm or if the animal was touching the objected directly with the nose.
Due to fair differences in the amount of time that each animal surveyed the object, the percentage of the survey time for each animal was determined using this formula: tNL/(tFL+tNL)×100 (where t is time, NL—new location(object), and FL—familiar location(object)). […] Subsequently, the statistical significance was analyzed using a Student's t-test criteria.

C57BL/6 mice [2] = assay: Recognition of the new object (non-spatial recognition memory); type: in vivo
Text: as §1, §2
The following experiment was also performed on 3-4 months old males (C57BL/6 line) with 10 animals in each group. All animals were kept in the animal facility (5 animals per cage) on the 12×12 hours light cycle (8 am-8 pm) with free access to food and water. However, in this case a round bottom testing chamber 52 cm in diameter (20.5 inches) and 34 cm (13.4 inches) high was used. Similarly, brown glass vials were used as test objects which are 2.7 cm in diameter (1.1 inch) and 5.5 cm high (2.2 inch). The testing compounds were administered orally at 0.05 mL per 10 g of animal mass 1 hour before the training exercise. All animals in the control group were treated with the equivalent dose of vehicle. The testing was performed 48 hours after the training exercise because animals forget the location of the object during the 48-hour resting time.
The experimental procedure was identical to the previously described test (Recognition of a new location of a known object). The major difference is in the testing procedure which involved one known object (brown glass vial) and one unknown object. The second glass vial was substituted with metallic cylinder 3 cm (1.2 inches) in diameter and 4.5 cm (1.8 inches) high.
Due to fair differences in the amount of time that each animal surveyed the object, the percentage of the survey time for each animal was determined using this formula: tNL/(tFL+tNL)×100 (where t is time, NL—new location(object), and FL—familiar location(object)). As 100% was taken the total amount of time that animals explored both objects. Subsequently, the statistical significance was analyzed using a Student's t-test criteria.

mice = assay: recognition test of new location of a known object (spatial memory); type: in vivo
[3] = 0.05 mg/kg, 1 hour prior to training, test 48 hours after training

Row | SMILES | depolarizing activity in safranine test (rat brain mitochondria) | time to explore the known object in a new location, % of the total time (C57BL/6 mice [1]) [%] | time to explore the object in a known position, % of the total time (C57BL/6 mice [1]) [%] | effect on memory in the new object recognition test (C57BL/6 mice [2]; 0.005 mg/kg) | time spent to recognize the known object, % of the total time (C57BL/6 mice [2]; [3]) [%] | time spent to recognize the new object, % of the total time (C57BL/6 mice [2]; [3]) [%] | effect on memory in the new object recognition test (C57BL/6 mice [2]; 0.5 mg/kg) | effect on memory in the new object recognition test (C57BL/6 mice [2]; 1-2 mg/kg) | Influence on memory in the test recognition new localization of known object (mice; Dose of Compound 0.05 mg/kg) | Influence on memory in the test recognition new localization of known object (mice; Dose of Compound 0.1 mg/kg) | Influence on memory in the test recognition new localization of known object (mice; Dose of Compound 0.5 mg/kg) | Influence on memory in the test recognition new localization of known object (mice; Dose of Compound 1.0 mg/kg)
1 | CN1CCc2c(c3cc(Cl)ccc3n2CCc2nc(-c3ccccc3)cs2)C1 [Compound C1-8] | depolarizing activity |  |  |  |  |  |  |  |  |  |  | 
2 | Cc1ccc2c(c1)c1c(n2CCc2ccc(C)nc2)CCN(C)C1 [Dimebon, dimebon, reference compound] |  | 61.2±5 | 38.8±5 | memory activating effect | 34.4±4.4 | 65.6±4.4 | not statistically significant | the stimulating effect on memory returned | + | + | − | −
